In the NIST ThermoML archive (doi:10.1021/je060271a):

Details: 343.15 K, Liquid, Vibrating tube method

CCCCCCCC(=O)OCC(COC(=O)CCCCCCC)(COC(=O)CCCCCCC)COC(=O)CCCCCCC [pentaerythritol tetraoctanoate]
Details | mass density [kg/m3]
4105.1 kPa | 929.1
4132.4 kPa | 929.2
4136.6 kPa | 929.1
4140.2 kPa | 929.1
4142.5 kPa | 929
4144.7 kPa | 929.2
4148 kPa | 929.2
4149.4 kPa | 929
4149.6 kPa | 929
4163.9 kPa | 929.2
4189.2 kPa | 929.1
4213.5 kPa | 929.1
4238.2 kPa | 929.2
4268.5 kPa | 929.1
4295 kPa | 929.3
4321.4 kPa | 929.2
4348.4 kPa | 929.2
4373.8 kPa | 929.1
4394.2 kPa | 929.2
4418.5 kPa | 929.1
4438.6 kPa | 929.2
4459 kPa | 929.3
4483.8 kPa | 929.4
4504.7 kPa | 929.3
4525.8 kPa | 929.4
4546.8 kPa | 929.4
4573.1 kPa | 929.3
4596.8 kPa | 929.5
4619 kPa | 929.5
4641.5 kPa | 929.4
4713.3 kPa | 929.5
4740.6 kPa | 929.4
4763.8 kPa | 929.5
4787 kPa | 929.6
4811.1 kPa | 929.6
4839.6 kPa | 929.6
4864.5 kPa | 929.5
4889.8 kPa | 929.7
4915.8 kPa | 929.8
4945.5 kPa | 929.6
4970.5 kPa | 929.8
4996.2 kPa | 929.6
5026.3 kPa | 929.7
5052.8 kPa | 929.8
5079.6 kPa | 929.8
5112.2 kPa | 929.7
5139.3 kPa | 929.8
5167 kPa | 929.8
5189.5 kPa | 929.8
5228.6 kPa | 929.8
5257.5 kPa | 929.9
5286.4 kPa | 929.8
5321 kPa | 930
5350.7 kPa | 930
5380.5 kPa | 929.9
5410.7 kPa | 929.9
5447.9 kPa | 929.9
5480.3 kPa | 930
5514 kPa | 930.1
5545.6 kPa | 930.2
5572.5 kPa | 930.2
5593.9 kPa | 930.1
5619.7 kPa | 930.1
5642.1 kPa | 930.2
5664.3 kPa | 930.2
5686.4 kPa | 930.2
5712.7 kPa | 930.3
5735.2 kPa | 930.2
5757.8 kPa | 930.3
5785.1 kPa | 930.2
5808.1 kPa | 930.2
5832 kPa | 930.3
5855.9 kPa | 930.3
5884.4 kPa | 930.4
5908.6 kPa | 930.4
5933.3 kPa | 930.4
5959.2 kPa | 930.5
5984.1 kPa | 930.3
6013.9 kPa | 930.4
6039.1 kPa | 930.4
6064.3 kPa | 930.5
6090.1 kPa | 930.4
6121 kPa | 930.5
6147.5 kPa | 930.5
6174.6 kPa | 930.5
6205.9 kPa | 930.5
6232.5 kPa | 930.6
6260.2 kPa | 930.7
6288.7 kPa | 930.6
6316.5 kPa | 930.6
6348.8 kPa | 930.7
6376.3 kPa | 930.6
6404.7 kPa | 930.6
6439.7 kPa | 930.7
6468.8 kPa | 930.7
6497.8 kPa | 930.7
6532.7 kPa | 930.8
6563.4 kPa | 930.8
6593.5 kPa | 930.9
6624.3 kPa | 930.8
6662.3 kPa | 930.8
6694.9 kPa | 930.9
6726.4 kPa | 930.9
6757.3 kPa | 930.9
6788.9 kPa | 931.1
6826.4 kPa | 931
6858.7 kPa | 931.1
6891.5 kPa | 931
6930.9 kPa | 931.2
6964.4 kPa | 931
6998.3 kPa | 931.1
7038.9 kPa | 931.2
7073.6 kPa | 931.2
7109 kPa | 931.2
7146.6 kPa | 931.3
7184.3 kPa | 931.3
7220.4 kPa | 931.2
7264.4 kPa | 931.2
7301.6 kPa | 931.4
7339.6 kPa | 931.5
7378.1 kPa | 931.3
7424.8 kPa | 931.3
7463.5 kPa | 931.5
7503.2 kPa | 931.5
7535.8 kPa | 931.5
7575 kPa | 931.6
7614.7 kPa | 931.5
7673.1 kPa | 931.6
7715 kPa | 931.7
7765.2 kPa | 931.6
7808 kPa | 931.8
7853.1 kPa | 931.7
7898.8 kPa | 931.7
7950.2 kPa | 931.8
7984.6 kPa | 931.8
8150.9 kPa | 931.9
8189.7 kPa | 932
8222.6 kPa | 932
8255.6 kPa | 932
8295.8 kPa | 932.1
8329.6 kPa | 932.1
8363.2 kPa | 932.1
8515 kPa | 932.1
8550.2 kPa | 932.2
8585.9 kPa | 932.3
8629.7 kPa | 932.3
8666.6 kPa | 932.3
8703.3 kPa | 932.4
8739.9 kPa | 932.4
8784.7 kPa | 932.5
8991.7 kPa | 932.5
9031.4 kPa | 932.6
9071.9 kPa | 932.5
9120.5 kPa | 932.6
9162.4 kPa | 932.7
9204.8 kPa | 932.7
9248.6 kPa | 932.6
9301 kPa | 932.7
9344.4 kPa | 932.8
9387.6 kPa | 932.8
9449 kPa | 932.8
9480 kPa | 933
9517.6 kPa | 933
9549.6 kPa | 933.1
9582.5 kPa | 933
9620.6 kPa | 932.9
9653.7 kPa | 933.2
9687.4 kPa | 933
9726.7 kPa | 933.1
9760 kPa | 933.1
9793.4 kPa | 933.2
9827.7 kPa | 933
9868.1 kPa | 933.1
9902.1 kPa | 933.2
9943.1 kPa | 933.2
9978.4 kPa | 933.4
10014 kPa | 933.3
10058 kPa | 933.4
10096 kPa | 933.4
10138 kPa | 933.4
10176 kPa | 933.4
10207 kPa | 933.3
10234 kPa | 933.4
10256 kPa | 933.5
10278 kPa | 933.4
10305 kPa | 933.6
10327 kPa | 933.5
10349 kPa | 933.5
10376 kPa | 933.6
10422 kPa | 933.8
10450 kPa | 933.7
10474 kPa | 933.6
10497 kPa | 933.7
10520 kPa | 933.7
10543 kPa | 933.8
10572 kPa | 933.6
10595 kPa | 933.7
10618 kPa | 933.7
10647 kPa | 933.6
10671 kPa | 933.7
10699 kPa | 933.7
10723 kPa | 933.8
10748 kPa | 933.8
10777 kPa | 933.8
10803 kPa | 933.9
10827 kPa | 933.9
10852 kPa | 933.8
10881 kPa | 933.9
10906 kPa | 933.9
10936 kPa | 934
10961 kPa | 934
10987 kPa | 933.9
11012 kPa | 933.9
11042 kPa | 934
11068 kPa | 934
11099 kPa | 934.1
11126 kPa | 933.9
11153 kPa | 934
11180 kPa | 934.2
11206 kPa | 934.2
11238 kPa | 934.2
11264 kPa | 934.2
11296 kPa | 934.3
11323 kPa | 934.3
11350 kPa | 934.2
11383 kPa | 934.3
11410 kPa | 934.3
11438 kPa | 934.3
11471 kPa | 934.3
11499 kPa | 934.3
11528 kPa | 934.4
11561 kPa | 934.4
11590 kPa | 934.4
11618 kPa | 934.4
11647 kPa | 934.2
11710 kPa | 934.4
11739 kPa | 934.5
11774 kPa | 934.4
11804 kPa | 934.5
11834 kPa | 934.4
11869 kPa | 934.5
11900 kPa | 934.6
11930 kPa | 934.7
11966 kPa | 934.6
11997 kPa | 934.7
12027 kPa | 934.6
12064 kPa | 934.7
12095 kPa | 934.7
12126 kPa | 934.7
12163 kPa | 934.8
12195 kPa | 934.7
12227 kPa | 934.8
12265 kPa | 934.9
12296 kPa | 934.8
12329 kPa | 934.9
12362 kPa | 934.8
12401 kPa | 934.9
12434 kPa | 935
12468 kPa | 935
12507 kPa | 935
12541 kPa | 935
12575 kPa | 935
12615 kPa | 935.1
12649 kPa | 935.2
12684 kPa | 935.1
12725 kPa | 935.1
12760 kPa | 935.1
12797 kPa | 935.2
12831 kPa | 935.2
12873 kPa | 935.3
12909 kPa | 935.2
12944 kPa | 935.3
12980 kPa | 935.3
13024 kPa | 935.5
13060 kPa | 935.3
13096 kPa | 935.4
13140 kPa | 935.5
13177 kPa | 935.5
13222 kPa | 935.7
13261 kPa | 935.6
13300 kPa | 935.6
13339 kPa | 935.6
13384 kPa | 935.7
13423 kPa | 935.6
13462 kPa | 935.6
13508 kPa | 935.7
13548 kPa | 935.8
13587 kPa | 935.6
13635 kPa | 935.7
13675 kPa | 935.7
13716 kPa | 935.8
13807 kPa | 936
13849 kPa | 936
13893 kPa | 936
13947 kPa | 936
13993 kPa | 936.1
